Data on 24 compounds can be found in US6689801B2, “Certain heteroaryl substituted thiol inhibitors of endothelin-converting enzyme” (Novartis AG, priority 1998, dated 2004).

SMILES strings stand for the structures.

As for `CSCCC(S)C(=O)NC1(C(=O)NC(Cc2ccc(-c3ccoc3)nc2)C(=O)O)CCCC1.Cl` (stereo not drawn), the melting point (as a rule, the temperature of the solid-liquid transition) was 150 to 153 °C. In turn, `CCCC(S)C(=O)NC1(C(=O)NC(Cc2ccc(-c3cccs3)nc2)C(=O)O)CCCC1.Cl` (stereo not drawn) came in with a melting point of 165 to 167 °C.

`CC[C@H](C)[C@H](S)C(=O)NC1(C(=O)NC(Cc2ccc(-c3ccccc3)s2)C(=O)O)CCCC1` (stereo in doubt) [Example 1(b), 2-{[1-(2-Mercapto-3-methyl-pentanoylamino)-cyclopentanecarbonyl]-amino}-3-(5-phenyl-thien-2-yl)-propionic acid] showed a melting point of 131 to 133 °C.

Consider `O=C(O)C(Cc1cc(-c2ccccc2)cs1)NC(=O)C1(NC(=O)[C@@H](S)Cc2ccccc2)CCCC1` (stereo in doubt) [Example 1(d), 2-{[1-(2-Mercapto-3-phenyl-propionylamino)-cyclopentanecarbonyl]-amino}-3-(4-phenyl-thien-2-yl)-propionic acid], for which the melting point is 133 to 136 °C.

`Cc1nc(-c2ccccc2)oc1CC(NC(=O)C1(NC(=O)[C@@H](S)C(C)C)CCCC1)C(=O)O` (stereo in doubt) [Example 1(e), 2-{[1-(2-Mercapto-3-methyl-butanoylamino)-cyclopentanecarbonyl]-amino}-3-(4-methyl-2-phenyl-oxazol-5-yl)-propionic acid] yielded a melting point of 227 to 229 °C. Next, `CC(C)C[C@H](S)C(=O)NC1(C(=O)N[C@@H](Cc2cnc(-c3ccc(F)c(Cl)c3)s2)C(=O)O)CCCC1` (stereo in doubt) [Example 1(f), 3-[2-(3-Chloro-4-fluoro-phenyl)-thiazol-5-yl]-2-{[1-(2-mercapto-4-methyl-pentanoylamino)-cyclopentanecarbonyl]-amino}-propionic acid]: 96 to 98 °C.

Regarding `Cc1noc(C)c1-c1nc(CC(NC(=O)C2(NC(=O)[C@@H](S)C(C)C)CCCC2)C(=O)O)no1` (stereo in doubt) [Example 1(g), 3-[5-(3,5-Dimethyl-isoxazol-4-yl)-[1,2,4]oxadiazol-3-yl]-2-{[1-(2-mercapto-3-methyl-butanoylamino)-cyclopentanecarbonyl]-amino}-propionic acid], the melting point was 170 to 172 °C.

In turn, `Cc1noc(C)c1-c1nc(CC(NC(=O)C2(NC(=O)[C@@H](S)CC(C)C)CCCC2)C(=O)O)no1` (stereo in doubt) [Example 1(h), 3-[5-(3,5-Dimethyl-isoxazol-4-yl)-[1,2,4]oxadiazol-3-yl]-2-{[1-(2-mercapto-4-methyl-pentanoylamino)-cyclopentanecarbonyl]-amino}-propionic acid] showed a melting point of 151 to 153 °C. The same measure for `CC(C)C[C@H](NC(=O)[C@@H](S)CC(C)C)C(=O)N[C@@H](Cc1ccc(-c2cccs2)nc1)C(=O)O` (stereo in doubt) [Example 2(aa), 2-[2-(2-Mercapto-4-methyl-pentanoylamino)-4-methyl-pentanoylamino]-3-[6-(thien-2-yl)-pyridin-3-yl]-propionic acid]: 156 to 158 °C; for `CC[C@H](C)C(S)C(=O)NC1(C(=O)NC(Cc2ccc(-c3ccsc3)nc2)C(=O)O)CCCC1` (stereo in doubt) [Example 2(b), 2-{[1-(2-Mercapto-3-methyl-pentanoylamino)-cyclopentanecarbonyl]-amino}-3-[6-(thien-3yl)-pyridin-3-yl]-propionic acid]: 200 to 202 °C. Next, `CC(C)C[C@H](S)C(=O)N[C@@H](Cc1ccc(Br)nc1)C(=O)N[C@@H](Cc1ccc(-c2cccs2)nc1)C(=O)O` (stereo in doubt) [Example 2(bb), 2-[3-(6-Bromo-pyridin-3-yl)-2-(2-mercapto-4-methyl-pentanoylamino)-propionylamino]-3-[6-(thien-2-yl)-pyridin-3-yl]-propionic acid]: 194 to 195 °C; `CC(C)C[C@H](S)C(=O)NC1(C(=O)NC(Cc2ccc(-c3ccoc3)nc2)C(=O)O)CCCC1` (stereo in doubt) [Example 2(dd), 3-[6-(Furan-3-yl)-pyridin-3-yl]-2-{[1-(2-mercapto-4-methyl-pentanoylamino)-cyclopentanecarbonyl]-amino}-propanoic acid]: 190 to 193 °C; `CC(C)C[C@H](S)C(=O)NC(C)(C)C(=O)N[C@@H](Cc1ccc(-c2ccsc2)nc1)C(=O)O` (stereo in doubt) [Example 2(k), 2-[2-(2-Mercapto-4-methyl-pentanoylamino)-2-methyl-propionylamino]-3-[6-(thien-3-yl)-pyridin-3-yl]-propionic acid]: 218 to 220 °C. Next, `O=C(O)[C@H](Cc1ccc(-c2ccsc2)nc1)NC(=O)C1(NC(=O)[C@@H](S)Cc2ccccc2)CCCC1` (stereo in doubt) [Example 2(l), 2-{[1-(2-Mercapto-3-phenyl-propionylamino)-cyclopentanecarbonyl]-amino}-3-[6-(thien-3-yl)-pyridin-3-yl]-propionic acid]: 208 to 209 °C; `CC(C)C[C@H](S)C(=O)NC1(C(=O)NC(Cc2ccc(-c3cccnc3)nc2)C(=O)O)CCCC1` (stereo in doubt) [Example 2(o), 2-{[1-(2-Mercapto-4-methyl-pentanoylamino)-cyclopentanecarbonyl]-amino}-3-[6-(pyridin-3-yl)-pyridin-3-yl]-propanoic acid]: 165 to 168 °C; `CC(C)C[C@H](S)C(=O)NC1(C(=O)NC(Cc2ccc(-c3ccco3)nc2)C(=O)O)CCCC1` (stereo in doubt) [Example 2(qq), 3-[6-(Furan-2-yl)-pyridin-3-yl]-2-{[1-(2-mercapto-4-methyl-pentanoylamino)-cyclopentanecarbonyl]-amino}-propionic acid]: 200 to 202 °C. `CSCC[C@H](S)C(=O)NC1(C(=O)NC(Cc2ccc(-c3cccs3)nc2)C(=O)O)CCCC1` (stereo in doubt) [Example 2(r), 2-{[1-(2-Mercapto-4-methylthio-butanoylamino)-cyclopentanecarbonyl]-amino}-3-[6-(thien-2-yl)-pyridin-3-yl]-propionic acid] had a melting point of 175 to 177 °C. As for `CSCC[C@H](S)C(=O)NC1(C(=O)NC(Cc2ccc(-c3ccco3)nc2)C(=O)O)CCCC1` (stereo in doubt) [Example 2(tt), 3-[6-(Furan-2-yl)-pyridin-3-yl]-2-{[1-(2-mercapto-4-methylthiobutanoylamino)-cyclopentanecarbonyl]-amino}-propionic acid], the melting point was 195 to 197 °C. Take `CC(C)C[C@H](S)C(=O)NC1(C(=O)NC(Cc2ccc(-c3nccs3)nc2)C(=O)O)CCCC1` (stereo in doubt) [Example 2(uu), 2-{[1-(2-Mercapto-4-methyl-pentanoylamino)-cyclopentanecarbonyl]-amino}-3-[6-(thiazol-2-yl)-pyridin-3-yl]-propionic acid]: the melting point lay in the range of 185 to 187 °C. The same measure for `O=C(NC1(C(=O)N[C@@H](Cc2ccc(-c3cccs3)nc2)C(=O)O)CCCC1)C(S)Cc1ccc(O)cc1` (stereo in doubt) [Example 2(v), 2-({1-[3-(4-Hydroxy-phenyl)-2-mercapto-propanoylamino]-cyclopentanecarbonyl}-amino)-3-[6-(thien-2-yl)-pyridin-3-yl]-propionic acid]: 219 to 220 °C; for `CC(C)C[C@H](S)C(=O)N[C@@H](Cc1ccc(-c2cccs2)nc1)C(=O)N[C@@H](Cc1ccc(-c2cccs2)nc1)C(=O)O` (stereo in doubt) [Example 2(w), 2-{2-(2-Mercapto-4-methyl-pentanoylamino)-3-[6-(thiophen-2-yl)-pyridin-3-yl]-propanoylamino}-3-[6-(thien-2-yl)-pyridin-3-yl]-propionic acid]: 210 to 212 °C. The same measure for `CC(C)C[C@H](S)C(=O)NC(C)(C)C(=O)N[C@@H](Cc1ccc(-c2cccs2)nc1)C(=O)O` (stereo in doubt) [Example 2(z), 2-[2-(2-Mercapto-4-methyl-pentanoylamino)-2-methyl-propionylamino]-3-[6-(thien-2-yl)-pyridin-3-yl]-propionic acid]: 194 to 196 °C; for `CC(C)[C@H](S)C(=O)NC1(C(=O)NC(Cc2cc(-c3ccccc3)cs2)C(=O)O)CCCC1` (stereo partly drawn) [Example 1(c), 2-{[1-(2-Mercapto-3-methyl-butanoyllamino)-cyclopentanecarbonyl]-amino}-3-(4-phenyl-thien-2-yl)-propionic acid]: 158 to 164 °C; for `CC(C)C[C@H](S)C(=O)N[C@@H](Cc1ccccc1)C(=O)N[C@@H](Cc1ccc(-c2cccs2)nc1)C(=O)O` [Example 2(u), 2-[1-(2-Mercapto-4-methyl-pentanoylamino)-3-phenyl-propionylamino]-3-[6-(thien-2-yl)-pyridin-3-yl]-propionic acid]: 209 to 210 °C.
